In patent US20230043198A1, “MICROBIOTA METABOLITES THAT SHAPE HOST PHYSIOLOGY” (Yale University, priority 2018, published 2023):
Where two headings read alike, the source gives them in different places.

What was measured:
GPR56/AGRG1 = GPR56/AGRG1 (Homo sapiens, UniProt Q9Y653); assay: GPR56 PRESTO-Tango; conditions: titrating doses of pure amino acid
DRD2 [1] = molecular target: T1, DRD2 (Homo sapiens, UniProt P14416); assay: DRD2 PRESTO-Tango; format: cell-based; conditions: pure ligand
DRD3 = DRD3 (Homo sapiens, UniProt P35462); assay: DRD3 PRESTO-Tango; format: cell-based; conditions: pure ligand
DRD4 = molecular target: T2, DRD4 (Homo sapiens, UniProt P21917); assay: DRD4 PRESTO-Tango; format: cell-based; conditions: pure ligand
T2 sequence (P21917 1-419): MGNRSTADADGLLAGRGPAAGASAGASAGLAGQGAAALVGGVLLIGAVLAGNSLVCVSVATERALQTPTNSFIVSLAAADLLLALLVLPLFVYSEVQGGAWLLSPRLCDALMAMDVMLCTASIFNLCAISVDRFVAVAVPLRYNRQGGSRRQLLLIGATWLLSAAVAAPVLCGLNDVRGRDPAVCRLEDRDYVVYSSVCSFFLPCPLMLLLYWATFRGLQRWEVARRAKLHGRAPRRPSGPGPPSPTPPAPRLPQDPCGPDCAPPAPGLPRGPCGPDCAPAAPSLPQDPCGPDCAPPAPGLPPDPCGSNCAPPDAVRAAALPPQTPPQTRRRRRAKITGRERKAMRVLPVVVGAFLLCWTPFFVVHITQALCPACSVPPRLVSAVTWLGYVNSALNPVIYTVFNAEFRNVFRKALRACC

colon motility [2] = conditions: rodents; cited from earlier work
DRD2 [3] = molecular target: T1, DRD2; conditions: for phenethylamine as measured by DRD2 activation by cecal and colonic extracts: L-Phe deficient diet, MAOI
GPR97/AGRG3 = GPR97/AGRG3 (Homo sapiens, UniProt Q86Y34); assay: GPR97 PRESTO-Tango; conditions: titrating doses of pure amino acid
[4] = molecular target: GPR56-ANT (a mutant lacking the extracellular domain) (Homo sapiens, UniProt Q9Y653); assay: PRESTO-Tango on GPR56 truncation mutant; conditions: titrating doses of L-Phe
colon motility [5] = assay: Intestinal motility by fecal output; format: in vivo, C57Bl/6 mice; conditions: M. morganii colonized mice, 1% L-His in water for 2 weeks
[6] = in vivo; cited from earlier work

T1 sequence (P14416 whole entry): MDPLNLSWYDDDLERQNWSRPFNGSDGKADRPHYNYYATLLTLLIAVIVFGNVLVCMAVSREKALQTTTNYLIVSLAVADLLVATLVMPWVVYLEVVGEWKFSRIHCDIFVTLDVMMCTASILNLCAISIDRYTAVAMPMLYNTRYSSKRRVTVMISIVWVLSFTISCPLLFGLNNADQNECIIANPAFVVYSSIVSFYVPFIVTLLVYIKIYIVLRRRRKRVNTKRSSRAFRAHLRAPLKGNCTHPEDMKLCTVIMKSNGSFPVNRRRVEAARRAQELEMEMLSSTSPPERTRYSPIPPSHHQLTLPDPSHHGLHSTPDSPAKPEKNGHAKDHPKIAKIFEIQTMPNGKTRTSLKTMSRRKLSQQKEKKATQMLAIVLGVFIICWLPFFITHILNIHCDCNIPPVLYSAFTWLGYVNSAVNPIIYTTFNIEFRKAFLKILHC
Chain of GPR56/AGRG1 (Q9Y653 26-693): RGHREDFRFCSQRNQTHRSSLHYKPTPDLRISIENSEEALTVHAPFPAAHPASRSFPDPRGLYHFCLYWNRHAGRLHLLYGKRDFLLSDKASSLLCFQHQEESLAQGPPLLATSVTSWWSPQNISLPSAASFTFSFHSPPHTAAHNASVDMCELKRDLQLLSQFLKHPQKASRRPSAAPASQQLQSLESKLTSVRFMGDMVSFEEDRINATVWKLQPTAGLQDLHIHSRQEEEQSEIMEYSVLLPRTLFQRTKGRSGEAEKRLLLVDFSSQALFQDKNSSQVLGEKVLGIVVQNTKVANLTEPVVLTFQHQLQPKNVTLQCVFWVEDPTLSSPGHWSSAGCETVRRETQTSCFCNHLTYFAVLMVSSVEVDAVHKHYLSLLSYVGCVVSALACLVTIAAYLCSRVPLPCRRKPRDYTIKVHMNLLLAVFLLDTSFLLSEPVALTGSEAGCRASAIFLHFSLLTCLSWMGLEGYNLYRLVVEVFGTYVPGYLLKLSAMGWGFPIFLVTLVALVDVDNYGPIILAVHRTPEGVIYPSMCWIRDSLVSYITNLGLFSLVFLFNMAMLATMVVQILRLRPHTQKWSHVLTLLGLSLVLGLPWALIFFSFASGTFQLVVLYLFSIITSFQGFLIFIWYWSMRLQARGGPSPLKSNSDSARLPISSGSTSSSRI
Chain of DRD3 (P35462 whole entry): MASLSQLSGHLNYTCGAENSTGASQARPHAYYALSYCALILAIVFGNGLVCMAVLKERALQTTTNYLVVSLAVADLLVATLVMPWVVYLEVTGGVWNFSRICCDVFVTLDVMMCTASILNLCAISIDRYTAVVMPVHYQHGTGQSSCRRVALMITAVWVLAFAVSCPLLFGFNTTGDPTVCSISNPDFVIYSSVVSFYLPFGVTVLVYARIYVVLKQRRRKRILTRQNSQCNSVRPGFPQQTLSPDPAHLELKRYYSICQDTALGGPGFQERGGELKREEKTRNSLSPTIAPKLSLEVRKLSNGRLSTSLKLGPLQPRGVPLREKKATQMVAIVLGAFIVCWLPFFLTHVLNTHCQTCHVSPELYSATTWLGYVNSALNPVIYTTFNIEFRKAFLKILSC
Chain of GPR56-ANT (a mutant lacking the extracellular domain) (Q9Y653 383-693 limits assumed, change not shown): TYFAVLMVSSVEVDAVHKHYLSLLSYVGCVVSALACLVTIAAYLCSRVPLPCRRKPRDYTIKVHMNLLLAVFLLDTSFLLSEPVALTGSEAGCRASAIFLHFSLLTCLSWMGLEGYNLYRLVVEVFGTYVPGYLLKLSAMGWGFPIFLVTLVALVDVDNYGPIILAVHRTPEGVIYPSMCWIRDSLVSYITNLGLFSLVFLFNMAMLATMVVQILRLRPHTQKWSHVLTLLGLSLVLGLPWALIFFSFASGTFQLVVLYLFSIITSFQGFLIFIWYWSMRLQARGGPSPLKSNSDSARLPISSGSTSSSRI
Chain of GPR97/AGRG3 (Q86Y34 21-549): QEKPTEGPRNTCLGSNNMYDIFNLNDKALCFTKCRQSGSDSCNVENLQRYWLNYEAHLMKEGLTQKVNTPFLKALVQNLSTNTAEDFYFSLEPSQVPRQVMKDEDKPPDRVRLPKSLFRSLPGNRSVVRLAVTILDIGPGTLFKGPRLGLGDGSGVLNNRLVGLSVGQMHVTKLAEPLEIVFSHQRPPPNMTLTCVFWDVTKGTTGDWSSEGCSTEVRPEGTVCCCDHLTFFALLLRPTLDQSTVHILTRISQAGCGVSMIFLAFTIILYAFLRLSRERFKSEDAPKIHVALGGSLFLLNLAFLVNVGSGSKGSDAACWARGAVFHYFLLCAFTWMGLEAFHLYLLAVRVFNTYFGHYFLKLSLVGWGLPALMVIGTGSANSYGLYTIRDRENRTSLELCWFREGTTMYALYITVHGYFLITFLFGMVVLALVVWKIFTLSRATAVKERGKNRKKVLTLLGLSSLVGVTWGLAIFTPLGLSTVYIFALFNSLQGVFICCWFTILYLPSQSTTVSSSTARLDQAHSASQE

N[C@@H](Cc1c[nH]c2ccccc12)C(=O)O [L-Trp, L-tryptophan]
activation of GPR56/AGRG1 (GPR56/AGRG1): no activity

NCCc1ccc(O)cc1 [tyramine, Tyramine]
activation of DRD2 (DRD2 [1]): selective DRD2/DRD3/DRD4 agonists | activation of DRD3 (DRD3): selective DRD2/DRD3/DRD4 agonists | activation of DRD4 (DRD4): selective DRD2/DRD3/DRD4 agonists

N[C@H](Cc1c[nH]c2ccccc12)C(=O)O [D-Trp]
activation of GPR56/AGRG1 (GPR56/AGRG1): no activity

N[C@H](Cc1ccc(O)cc1)C(=O)O [D-Tyr]
activation of GPR56/AGRG1 (GPR56/AGRG1): no activity

NCCc1c[nH]cn1 [histamine, Histamine]
effect of oral gavage on colon motility (colon motility [2]): increase colon motility

NNCCc1ccccc1 [phenelzine]
onset of lethargy after MAOI treatment (C57Bl/6, mouse, in vivo): ≤ 4 days | mortality after treatment with MAOI (mice colonized with M. morganii, died before the seventh day of treatment): more than half | health after MAOI treatment (mouse, in vivo): remained healthy | health after treatment with MAOI (mouse, in vivo): appeared healthy | morbidity after treatment with MAOI (mouse, in vivo): lethargic within days | DRD2 activation by cecal and colonic contents and serum (DRD2 [3]; MAOI-treated M. morganii colonized mice): activated DRD2 | phenethylamine as measured by DRD2 activation by cecal and colonic extracts (DRD2 [3]; mice bi-colonized with C34 and M. morganii): significant levels of phenethylamine | phenethylamine as measured by DRD2 activation by cecal and colonic extracts (DRD2 [3]; mice colonized with M. morganii alone): minimal phenethylamine

NCCc1ccc(O)c(O)c1 [dopamine, Dopamine]
activation of DRD2 (DRD2 [1]): efficiently activated

N[C@H](Cc1ccccc1)C(=O)O [D-Phe]
activation of GPR56/AGRG1 (GPR56/AGRG1): no activity

N[C@@H](Cc1ccccc1)C(=O)O [L-Phe, L-phenylalanine]
activation of GPR56/AGRG1 (GPR56/AGRG1): stereoselectively activated | activation of GPR97/AGRG3 (GPR97/AGRG3): activated | response of GPR56/AGRG1 truncation mutant lacking the extracellular domain [4]: failed to respond

N[C@@H](Cc1c[nH]cn1)C(=O)O [L-His, L-histidine]
fecal output upon supplementation with L-His (colon motility [5]): further increased | activation of GPR56/AGRG1 (GPR56/AGRG1): no activity

N[C@H](Cc1c[nH]cn1)C(=O)O [D-His]
activation of GPR56/AGRG1 (GPR56/AGRG1): no activity

NCCc1ccccc1 [phenethylamine, Phenethylamine]
activation of DRD2 (DRD2 [1]): selective DRD2/DRD3/DRD4 agonists | activation of DRD3 (DRD3): selective DRD2/DRD3/DRD4 agonists | activation of DRD4 (DRD4): selective DRD2/DRD3/DRD4 agonists | crossing of the blood-brain barrier [6]: can readily cross
